We go through seven molecules from PubChem BioAssay (NCI).

Some test systems named below: OVCAR-5 ovarian; MCF7 breast; 786-0 renal; TK-10 renal; RPMI-8226 leukemia; HCC-2998 colon; UACC-257 melanoma; SK-MEL-5 melanoma; U251 CNS; SR leukemia.
Holding throughout (assay): DTP human tumour cell line panel, 48 h

Values joined by “and” are separate entries in the source; they are usually repeats but may differ in a detail not shown here. Equal entries are not always repeated.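 These data come from cells grown in 96-well plates and exposed to compound for 48 hours at five concentrations. The concentration for 50% growth inhibition is given as GI50. TGI is the concentration that stops growth completely.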

As usually defined, the GI50 is the concentration that inhibits growth by half. By TGI is commonly meant the concentration at which net growth stops. High values mean lower sensitivity of the cells, low ones greater sensitivity of the cells.

In the case of `FC(F)(F)c1cccc(-c2nn3ncccc3c2-c2ccnc(Nc3ccc4c(c3)OCCO4)n2)c1`, the GI50 in the experiment on OVCAR-5 ovarian is greater than 25 µM; in the experiment with MCF7 breast it was 14.4 µM; with 786-0 renal, 8.35 µM; in the experiment with TK-10 renal it was 8.49 µM; in the experiment on RPMI-8226 leukemia, 7.88 µM; with HCC-2998 colon it was 13 µM. Besides, the GI50 in the experiment with UACC-257 melanoma was 9.5 µM; with SK-MEL-5 melanoma, 7.87 µM; in the experiment with U251 CNS, 19.5 µM; in the experiment on SR leukemia, 10.4 µM. In addition, the TGI in the experiment with OVCAR-5 ovarian, in the experiment with MCF7 breast, in the experiment with 786-0 renal, in the experiment on TK-10 renal, with RPMI-8226 leukemia and in the experiment with HCC-2998 colon was greater than 25 µM throughout. Further, the TGI in the experiment with UACC-257 melanoma, with SK-MEL-5 melanoma, in the experiment on U251 CNS and in the experiment with SR leukemia was greater than 25 µM each time.
`CC(CO)(Nc1ccc([N+](=O)[O-])cc1[N+](=O)[O-])C(=O)O` (stereo not given): the concentration for total growth inhibition (TGI) is 89 µM in the experiment with OVCAR-5 ovarian; 32.1 µM with MCF7 breast; greater than 100 µM in the experiment on 786-0 renal; greater than 100 µM in the experiment with TK-10 renal; greater than 100 µM in the experiment with RPMI-8226 leukemia; 43.6 µM in the experiment on HCC-2998 colon. In addition, the TGI in the experiment with UACC-257 melanoma is 69.2 µM; with SK-MEL-5 melanoma, 44.5 µM; in the experiment with U251 CNS it was 49.2 µM; with SR leukemia, 24.8 µM.
For the molecule `COc1ccc(/C=C(/C)[N+](=O)[O-])cc1OC`, the GI50 was 4.12 µM and 5 µM in the experiment on OVCAR-5 ovarian; 1.23 µM and 1.09 µM with MCF7 breast; 1.89 µM and 1.79 µM in the experiment with 786-0 renal; 1.76 µM and 1.32 µM with TK-10 renal; 0.971 µM and 1.6 µM in the experiment on RPMI-8226 leukemia; 1.8 µM and 1.77 µM in the experiment on HCC-2998 colon. The GI50 in the experiment with UACC-257 melanoma is 1.56 µM and 0.6 µM; with SK-MEL-5 melanoma, 1.71 µM and 1.9 µM; in the experiment on U251 CNS, 2.3 µM and 1.67 µM; in the experiment on SR leukemia, 1.26 µM. Moreover, the TGI in the experiment on OVCAR-5 ovarian is 12.4 µM and 16.1 µM; in the experiment with MCF7 breast it was 3.26 µM and 2.57 µM; in the experiment with 786-0 renal, 3.39 µM and 3.36 µM; with TK-10 renal it was 3.5 µM and 2.7 µM; in the experiment with RPMI-8226 leukemia it was 3.43 µM and 5.18 µM; in the experiment with HCC-2998 colon, 3.27 µM and 3.32 µM. The TGI in the experiment on UACC-257 melanoma is 2.98 µM and 1.92 µM; in the experiment with SK-MEL-5 melanoma, 3.09 µM and 3.43 µM; in the experiment with U251 CNS, 6.14 µM and 3.14 µM; in the experiment on SR leukemia, 7 µM.
Consider `CC1c2ccccc2CCN1c1ccc(CO)c(Cl)c1` (stereo not given), for which the GI50 in the experiment with OVCAR-5 ovarian is 0.0427 µM; in the experiment with MCF7 breast it was 0.0565 µM; with 786-0 renal it was 16.7 µM; with TK-10 renal it was 0.0346 µM; in the experiment on RPMI-8226 leukemia it was 1.94 µM; in the experiment on HCC-2998 colon, 2.95 µM. Moreover, the GI50 in the experiment with UACC-257 melanoma was 0.0412 µM; in the experiment on SK-MEL-5 melanoma, 13.8 µM; with U251 CNS, 0.318 µM; with SR leukemia, 28.3 µM. For the same molecule, the TGI was 0.187 µM with OVCAR-5 ovarian; 23.2 µM in the experiment with MCF7 breast; 43.1 µM in the experiment with 786-0 renal; 0.187 µM with TK-10 renal; 47.5 µM in the experiment on RPMI-8226 leukemia; 17.6 µM in the experiment with HCC-2998 colon. For the same molecule, the TGI with UACC-257 melanoma is 0.191 µM; in the experiment on SK-MEL-5 melanoma, 27.1 µM; with U251 CNS, greater than 46.1 µM; with SR leukemia, greater than 85.9 µM.
Consider `CNNC(=NS(=O)(=O)c1cc(C#N)c(NNC)cc1S)NNC`, for which the TGI in the experiment with OVCAR-5 ovarian, in the experiment on MCF7 breast, with 786-0 renal, in the experiment on TK-10 renal, in the experiment with RPMI-8226 leukemia and with HCC-2998 colon was greater than 10 µM in each case. Further, the TGI in the experiment with UACC-257 melanoma, in the experiment with SK-MEL-5 melanoma, in the experiment on U251 CNS and in the experiment with SR leukemia was greater than 10 µM in each case.
`O=C1C(OCCOc2ccccc2)=C(OCCOc2ccccc2)C(=O)c2ccccc21`: the GI50 in the experiment on OVCAR-5 ovarian was greater than 100 µM; in the experiment on MCF7 breast it was 7.74 µM; in the experiment on 786-0 renal, 34.6 µM; in the experiment on TK-10 renal, greater than 100 µM; with RPMI-8226 leukemia it was greater than 100 µM; in the experiment with HCC-2998 colon, 11.6 µM. Further, the GI50 is 3.72 µM in the experiment with UACC-257 melanoma, 1.92 µM in the experiment on SK-MEL-5 melanoma, 5 µM in the experiment with U251 CNS and 7.26 µM in the experiment with SR leukemia. Moreover, the TGI in the experiment on OVCAR-5 ovarian, in the experiment with MCF7 breast, in the experiment with 786-0 renal, in the experiment on TK-10 renal, in the experiment on RPMI-8226 leukemia and in the experiment on HCC-2998 colon was greater than 100 µM in each case. The concentration for total growth inhibition (TGI) with UACC-257 melanoma is greater than 100 µM; in the experiment on SK-MEL-5 melanoma, 4.86 µM; in the experiment on U251 CNS, greater than 100 µM; in the experiment on SR leukemia it was greater than 100 µM.
Regarding `COc1ccc2c(c1)C(=O)c1c-2c(OCCN(C)C)nc2ccccc12`, the GI50 in the experiment on OVCAR-5 ovarian was 4.53 µM; in the experiment with MCF7 breast it was 1.76 µM; in the experiment with 786-0 renal it was 4.06 µM; in the experiment on TK-10 renal, 7.56 µM; in the experiment with RPMI-8226 leukemia, 2.85 µM; in the experiment on HCC-2998 colon it was 3.89 µM. Further, the GI50 was 3.06 µM with UACC-257 melanoma, 4.6 µM in the experiment with SK-MEL-5 melanoma, 2.28 µM with U251 CNS and 0.998 µM with SR leukemia. Further, the TGI in the experiment with OVCAR-5 ovarian turned out to be 18.5 µM; in the experiment on MCF7 breast, 10.9 µM; in the experiment with 786-0 renal, 16.5 µM; with TK-10 renal, 20.8 µM; with RPMI-8226 leukemia it was 13.9 µM; with HCC-2998 colon, 14.5 µM. Further, the TGI in the experiment on UACC-257 melanoma amounted to 10.9 µM; with SK-MEL-5 melanoma, 16.6 µM; in the experiment on U251 CNS, 9.87 µM; in the experiment with SR leukemia it was 6.76 µM.
